# Reference: patent US11083725B2 (priority 2014, dated 2021)
# System: NHBE cells
# Experiment: Biolog metabolic array: substrate use by NHBE cells with or without CA09 infection
# Assay type: cell-based, human
# Conditions: for Substrate use, 590 nm absorbance normalized to zero hour, 0 hr: Biolog PMM2, 0 hr; for Substrate use, 590 nm absorbance normalized to zero hour, 1 hr: Biolog PMM2, 1 hr; for Substrate use, 590 nm absorbance normalized to zero hour, 5 hr: Biolog PMM2, 5 hr; for Substrate use, 590 nm absorbance normalized to zero hour, 7 hr: Biolog PMM2, 7 hr
# [1] = Control (uninfected) NHBE cells
# [2] = Virus (CA09-infected, MOI 1) NHBE cells
# [3] = Virus: CA09-infected NHBE cells, MOI 1, Biolog PMM2
# [4] = Virus (CA09-infected NHBE cells, MOI 1)
SMILES,"590 nm absorbance normalized to zero hour (substrate use), 0 hr [1]","590 nm absorbance normalized to zero hour (substrate use), 1 hr [1]","590 nm absorbance normalized to zero hour (substrate use), 2 hr [1]","590 nm absorbance normalized to zero hour (substrate use), 3 hr [1]","590 nm absorbance normalized to zero hour (substrate use), 4 hr [1]","590 nm absorbance normalized to zero hour (substrate use), 6 hr [1]","590 nm absorbance normalized to zero hour (substrate use), 8 hr [1]","590 nm absorbance normalized to zero hour (substrate use), 9 hr [1]","590 nm absorbance normalized to zero hour (substrate use), 10 hr [1]","590 nm absorbance normalized to zero hour (substrate use), 11 hr [1]","Substrate use, 590 nm absorbance normalized to zero hour, 0 hr [1]","Substrate use, 590 nm absorbance normalized to zero hour, 1 hr [1]","Substrate use, 590 nm absorbance normalized to zero hour, 5 hr [1]","Substrate use, 590 nm absorbance normalized to zero hour, 7 hr [1]","590 nm absorbance normalized to zero hour (substrate use), 0 hr [3]","590 nm absorbance normalized to zero hour (substrate use), 1 hr [3]","590 nm absorbance normalized to zero hour (substrate use), 2 hr [3]","590 nm absorbance normalized to zero hour (substrate use), 3 hr [3]","590 nm absorbance normalized to zero hour (substrate use), 4 hr [3]","590 nm absorbance normalized to zero hour (substrate use), 5 hr [3]",further results
"CC[C@H](O)C(=O)O (racemic) [D,L-a-Hydroxy-Butyric Acid]",1.00,0.92,1.05,0.99,1.01,0.56,0.72,1.79,0.74,2.19,1.00,0.92,1.18,1.41,1.00,1.29,1.58,1.74,1.84,2.00,"590 nm absorbance normalized to zero hour (substrate use), 0 hr [2]: 1.00; 590 nm absorbance normalized to zero hour (substrate use), 1 hr [2]: 1.29; 590 nm absorbance normalized to zero hour (substrate use), 2 hr [2]: 1.58; 590 nm absorbance normalized to zero hour (substrate use), 3 hr [2]: 1.74; 590 nm absorbance normalized to zero hour (substrate use), 4 hr [2]: 1.84; 590 nm absorbance normalized to zero hour (substrate use), 5 hr [2]: 2.00; 590 nm absorbance normalized to zero hour (substrate use), 6 hr [2]: 2.10; 590 nm absorbance normalized to zero hour (substrate use), 7 hr [2]: 2.18; 590 nm absorbance normalized to zero hour (substrate use), 8 hr [2]: 2.26; 590 nm absorbance normalized to zero hour (substrate use), 9 hr [2]: 2.35; 590 nm absorbance normalized to zero hour (substrate use), 10 hr [2]: 2.39; 590 nm absorbance normalized to zero hour (substrate use), 11 hr [2]: 2.21; 590 nm absorbance normalized to zero hour (substrate use), 6 hr [3]: 2.10; 590 nm absorbance normalized to zero hour (substrate use), 7 hr [3]: 2.18; 590 nm absorbance normalized to zero hour (substrate use), 8 hr [3]: 2.26; 590 nm absorbance normalized to zero hour (substrate use), 9 hr [3]: 2.35; 590 nm absorbance normalized to zero hour (substrate use), 10 hr [3]: 2.39; 590 nm absorbance normalized to zero hour (substrate use), 11 hr [3]: 2.21"
OC[C@@H](O)[C@@H](O[C@H]1O[C@H](CO)[C@@H](O)[C@H](O)[C@H]1O)[C@H](O)[C@@H](O)CO [Maltitol],1.00,1.76,2.36,2.82,3.07,3.52,4.77,5.77,5.24,5.98,1.00,1.76,3.80,4.49,1.00,1.05,1.03,1.37,0.98,0.88,"590 nm absorbance normalized to zero hour (substrate use), 0 hr [4]: 1.00; 590 nm absorbance normalized to zero hour (substrate use), 1 hr [4]: 1.05; 590 nm absorbance normalized to zero hour (substrate use), 2 hr [4]: 1.03; 590 nm absorbance normalized to zero hour (substrate use), 3 hr [4]: 1.37; 590 nm absorbance normalized to zero hour (substrate use), 4 hr [4]: 0.98; 590 nm absorbance normalized to zero hour (substrate use), 5 hr [4]: 0.88; 590 nm absorbance normalized to zero hour (substrate use), 6 hr [4]: 0.89; 590 nm absorbance normalized to zero hour (substrate use), 7 hr [4]: 0.92; 590 nm absorbance normalized to zero hour (substrate use), 8 hr [4]: 0.96; 590 nm absorbance normalized to zero hour (substrate use), 9 hr [4]: 1.01; 590 nm absorbance normalized to zero hour (substrate use), 10 hr [4]: 1.08; 590 nm absorbance normalized to zero hour (substrate use), 11 hr [4]: 1.16; 590 nm absorbance normalized to zero hour (substrate use), 6 hr [3]: 0.89; 590 nm absorbance normalized to zero hour (substrate use), 7 hr [3]: 0.92; 590 nm absorbance normalized to zero hour (substrate use), 8 hr [3]: 0.96; 590 nm absorbance normalized to zero hour (substrate use), 9 hr [3]: 1.01; 590 nm absorbance normalized to zero hour (substrate use), 10 hr [3]: 1.08; 590 nm absorbance normalized to zero hour (substrate use), 11 hr [3]: 1.16"
